In PubChem BioAssay (NCI):
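Interpolation was linear, between the two tested concentrations surrounding the appropriate level; five concentrations were tested over 48 hours in 96-well plates. GI50 is the concentration that inhibits growth by half. TGI: concentration producing complete growth inhibition.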 Where a SMILES comes first, the peptide text is derived from it. The star is where a group is joined. Boc = CC(C)(C)OC(=O)*

Assays:
Test in all cases: DTP human tumour cell line panel, 48 h
NCI-H226 lung = test system: NCI-H226 lung
PC-3 prostate = test system: PC-3 prostate
KM12 colon = test system: KM12 colon
UACC-257 melanoma = test system: UACC-257 melanoma
TK-10 renal = test system: TK-10 renal
HOP-62 NSCLC = test system: HOP-62 NSCLC
CAKI-1 renal = test system: CAKI-1 renal
SF-539 CNS = test system: SF-539 CNS
NCI-H460 lung = test system: NCI-H460 lung
OVCAR-5 ovarian = test system: OVCAR-5 ovarian

Compound	TGI (NCI-H226 lung) [µM]	TGI (PC-3 prostate) [µM]	TGI (KM12 colon) [µM]	TGI (UACC-257 melanoma) [µM]	TGI (TK-10 renal) [µM]	TGI (HOP-62 NSCLC) [µM]	TGI (CAKI-1 renal) [µM]	TGI (SF-539 CNS) [µM]	TGI (NCI-H460 lung) [µM]	TGI (OVCAR-5 ovarian) [µM]	GI50 (NCI-H226 lung) [µM]	GI50 (PC-3 prostate) [µM]	GI50 (KM12 colon) [µM]	GI50 (UACC-257 melanoma) [µM]	GI50 (TK-10 renal) [µM]	GI50 (HOP-62 NSCLC) [µM]	GI50 (CAKI-1 renal) [µM]	GI50 (SF-539 CNS) [µM]	GI50 (NCI-H460 lung) [µM]	GI50 (OVCAR-5 ovarian) [µM]
Oc1c(CN2CCCC2)ccc2cccnc12	> 64	> 100	> 100	> 100	88.7	> 65.8	60.8	> 78.5	> 84.6	> 100										
Cc1cc2nc3c(C#N)c4c(c(Nc5ccc(F)cc5)n3c2cc1C)CCC4	> 100	> 100	> 100	> 100	> 100	> 100	> 100	> 100	> 100	> 100										
CN1CCN(C(=O)CCC(=O)Nc2cc3c(c4ccccc24)-c2ccc4ccccc4c2C3)CC1	3.93	3.37	3.2	3.24	3.27	3.15	3.16	3.13	3.72	3.15										
COc1ccccc1NC(=S)N=Nc1c(O)[nH]c2ccccc12	> 100	> 100	> 100	> 100	> 100	> 100	> 100	> 100	> 100	> 100										
C[C@@]1(CCCCCCCCCCc2ccccc2)C[C@@]2(C)OC(=O)C[C@H]2OO1	10.9	4.41	38.6	4.55	7.28	35.3	> 84.1	2.58	5.06	3.94										
O=C1c2ccccc2C(=O)N1n1c(Cc2ccc(Cl)cc2)n[nH]c1=O	> 100	> 100	> 100	> 100	> 100	> 100	> 100	> 100	> 100	> 100										
O=P(O)(O)c1ccc(-c2ccc(I)cc2)cc1	> 100	> 100	> 100	> 100	> 100	> 100	> 100	> 100	> 100	> 100										
CC(C)(C)COC(=O)C(C)(C)NC(=O)C(CC(=O)OCc1ccccc1)NC(=O)OCc1ccccc1 (stereo not given)	85.2	> 100	> 100	82.1	78.7	> 100	> 100	> 100	> 100	93.5										
CC(C)(C)NC1=NC(C(F)(F)F)(C(F)(F)F)NC(=O)N1	> 100	> 100	> 100	> 100	> 100	> 100	> 100	> 100	> 100	> 100										
COc1ccc2nc3c([N+](=O)[O-])ccc(NCCN(C)C)c3c(N)c2c1	4.54	2.81	0.939	3.99	3.09	3.65	3.42	3.05	2.95	3.09										
N[C@H]1c2c(Br)sc(Br)c2C(=O)[C@H]1O	62	> 75.1	> 100	29.7	> 100	36.5	16.7	36	35.6	60.7										
Clc1ccc(CCNC2(c3cc4ccccc4s3)CCCCC2)cc1Cl	40.7	> 100	61.8	42.7	65.9	84.3	> 100	46.7	40.3	68.1										
COc1ccc2c(c1)CC[C@@H]1C2CC[C@]2(C)C(=O)N(CCN(C)C)C(=O)CC12 (stereo not given in full)	> 100	> 100	> 100	> 100	> 100	> 100	> 100	> 100	> 100	> 100										
COC(=O)CN(CC(=O)NCCCBr)C1CCCCC1N(CC(=O)OC)CC(=O)OC (stereo not given)	> 100	> 100	> 100	> 100	> 100	> 100	> 100	> 100	> 100	> 100										
CC(=O)C1=C(C)O[C@@H]2O[C@H](COCc3ccccc3)[C@@H](OCc3ccccc3)[C@H](O)[C@@H]2S1	48.6	77.3	38.1	39.7	51.3	46.2	> 100	42.2	38.9	84.1										
O=C1/C(=C/c2ccc(O)cc2)CCCC1CN1CCCCC1 (stereo not given)	18.2	10	4.93	6.72	8.64	29.8	8.3	8.45	30.7	30.8										
Cc1ccccc1NC(=O)Cc1csc(N/N=C2\NC(=O)/C(=C/c3cccc([N+](=O)[O-])c3)S2)n1	39.1	33.5	34.2	41.9	36.9	92.5	35.7	33.4	29	45.8										
COC(=O)C(Cc1ccccc1)NC(=O)C(CS)NC(=O)OC(C)(C)C (stereo not drawn) (Boc-Cys-Phe-OMe; configuration not given here)	> 100	> 100	> 100	> 100	> 100	> 100	> 100	> 100	> 100	> 100										
O=C(CCBr)N1CCN(C(=O)CCBr)CC1	201	500	181	246	488	155	168	168	113	189										

Compound	TGI (NCI-H226 lung) [µM]	TGI (PC-3 prostate) [µM]	TGI (KM12 colon) [µM]	TGI (UACC-257 melanoma) [µM]	TGI (TK-10 renal) [µM]	TGI (HOP-62 NSCLC) [µM]	TGI (CAKI-1 renal) [µM]	TGI (SF-539 CNS) [µM]	TGI (NCI-H460 lung) [µM]	TGI (OVCAR-5 ovarian) [µM]	GI50 (NCI-H226 lung) [µM]	GI50 (PC-3 prostate) [µM]	GI50 (KM12 colon) [µM]	GI50 (UACC-257 melanoma) [µM]	GI50 (TK-10 renal) [µM]	GI50 (HOP-62 NSCLC) [µM]	GI50 (CAKI-1 renal) [µM]	GI50 (SF-539 CNS) [µM]	GI50 (NCI-H460 lung) [µM]	GI50 (OVCAR-5 ovarian) [µM]
O=C(NC(=S)Nc1ccc([N+](=O)[O-])cc1)c1ccc2c(c1)Sc1ccccc1O2	> 100	> 100	> 100	> 100	> 100	> 100	> 100	> 100	> 100	> 100										
CCOP(=O)(CCCC(O)CNc1nc(N)nc(Cl)c1N=Nc1ccc(Cl)cc1)OCC (stereo not given)	22.1	16.7	25	18.1	13.6	24.8	13.9	23	37	25.5										
CN(c1ccccc1)S(=O)(=O)c1ccc([N+](=O)[O-])cc1	> 100	> 100	> 100	> 100	> 100	> 100	> 100	> 100	> 100	> 100										
Cc1c(C(=O)O)n2c(=S)[nH]nc2c2ccccc12	> 100	> 100	> 100	> 100	> 100	> 100	> 100	> 100	> 100	> 100										
Cc1ncc([N+](=O)[O-])n1CC[N+](C)([O-])CCCCn1ccnc1[N+](=O)[O-] (stereo not given)	> 100	> 100	> 100	> 100	> 100	> 100	> 100	> 100	> 100	> 100										
CN(C)Cc1c(O)ccc2c1c1c(n2C)C(=O)c2ccccc2C1=O	38.1	32.7	23.9	23.9	50.7	> 100	70.3	> 100	> 100	74.4										
COC(=O)Nc1nc2ccc(S(=O)(=O)Nc3ccccn3)cc2[nH]1	> 100	> 100	> 100	93.5	70.3	> 100	> 100	52.6	> 100	> 100										
COC(=O)CNC(=O)C(Cc1ccccc1)NC(=O)c1ccc(-c2ccc(Cl)cc2Cl)o1 (stereo not given)	> 100	> 100	91.2	57.5	75.2	78.8	77.6	> 100	40.3	> 100										
Cn1cnc(N2CCCC2)c(C#N)c1=S	> 100	> 100	> 100	> 100	> 100	> 100	> 100	> 100	> 100	> 100										
CCn1c2nc(=O)n(CCCCCCCCSC(c3ccccc3)(c3ccccc3)c3ccccc3)c(=O)c-2nc2ccccc21	> 100	> 100	> 100	> 100	> 100	> 100	> 100	> 100	> 100	> 100										
O=c1[nH]c(=O)c2ncn(-c3ccc([N+](=O)[O-])cn3)c2[nH]1	> 100	> 100	> 100	> 100	> 100	> 100	> 100	> 100	> 100	> 100										
CNC(=O)N(CCC#N)CCN(C(=O)NC)c1ccccc1	> 100	> 100	> 100	> 100	> 100	> 100	> 100	> 100	> 100	> 100										
CC(=O)OCC1OC(n2cnc3nc(Br)[nH]c(=O)c32)C(OC(C)=O)C1OC(C)=O (stereo not given)	> 100	> 100	> 100	> 100	> 100	> 100	> 100	> 100	> 100	> 100										
O=c1[nH]c2ccccc2c(O)c1Cc1ccccc1	> 100	> 100	> 100	> 100	> 100	> 100	> 100	> 100	> 100	> 100										
CCOC(=O)c1[nH]cc(C)c1-c1cccn1-c1ccc(Cl)cc1[N+](=O)[O-]	46.2	64.9	52.9	67.8	41.7	44.9	> 100	43.9	48	> 100										
CC(C)NC(=O)OCc1c(COC(=O)NC(C)C)c(-c2ccc[n+](COC(=O)Cc3ccccc3)c2)n2c1CCC2	> 100	> 100	> 100	> 100	> 100	> 100	34	> 100	> 100	> 100										
C=C(C)[C@@H](O)[C@H](O)C[C@H](C)C1CC[C@]2(C)C1=CC[C@@H]1[C@@]3(C)CC[C@@H](OC(C)=O)C(C)(C)[C@@H]3C[C@@H](OC3OC(COC(C)=O)C(O)C(O)C3O)[C@]12C (stereo not given in full)	10.3	6.59	2.95	8.53	10.6	10.1	11.8	11.7	6.51	4.43										
COc1ccc2c(c1)N(Cc1ccc(Cl)cc1)CCC2N1CCCC1=O (stereo not given)	34.5	38.7	29.3	11.2	60.9	42.7	16.7	69.3	> 100	> 100	2.89	3	4.84	3.07	6.98	4.27	3.49	4.94	4.22	6.6
